The values that follow come from US20080220065A1, “Compositions for treating foot odor and methods of use thereof” (priority 2007, published 2008).

Data set [1] deals with foot odor. As to the kind of experiment: efficacy duration study, twenty-six persons, right vs left footwear, olfactory evaluation. To be noted: for olfactory evaluation of footwear and feet: three days following administration. The class given is in vivo, human. The protocol:
Thereafter, to test the efficacy duration of the preferred mixture and concentration of the present invention, a study was conducted of twenty-six persons, male and female, ranging in ages from 7-71 years, all presenting with foul and distressing foot odor. These twenty-six persons had all of their “right-side” footwear treated with 1-1.25 g of cupric carbonate and their “left-side” footwear with 1-1.25 g sodium bicarbonate. Three days following administration, each shoe worn and both feet of each participant were evaluated via olfactory sense. Evaluation results were the same, without exception, for all participants.

In data set [2] the test system is foot odor. Kind of data set: initial empirical use studies in footwear. An excerpt:
Initial empirical use studies involved finely divided elemental copper powder.

Data set [3] has as its system ubiquitous microbial cultures collected from common household and mammalian sources. As to the kind of experiment: filter disc incubation with streak-inoculated microbial cultures. The data set is classed as cell-based. As to conditions: filter discs impregnated by aqueous saturation, incubated with the cultures. The protocol: Initial comparative studies were conducted in an effort to validate the antimicrobial activities of cupric compounds, wherein ubiquitous microbial cultures were collected from common household and mammalian sources and isolated in identifiable colonies by streak inoculation.

Data set [4] deals with foot odor. As to the kind of experiment: dosing specification study, organoleptic odor evaluation, six volunteers. The data set is classed as in vivo, human. As to conditions: for organoleptic odor evaluation: after three, 10 and 30 days. As for the experimental part: Dosing specification studies were conducted in order to define a preferred minimum quantity for preferred use; although mindful of the differences in performance, more or less than the preferred minimum quantity could be utilized in alternate compositions. Initial test dosing was approximately 3.5 to 4.0 grams dispersed within each shoe, with excess bumped out through the footwear opening.
In the study, six volunteer participants with confirmed and self-recognized foot odor participated in trials to establish preferred upper and lower specification ranges. […] The left shoes were treated in a variable fashion, from an initial 3.5 gram dose to a final dose of 0.5 grams, via 0.5 gram increments. An organoleptic evaluation was performed by each test subject, and also be the inventor, after three days, 10 days, and 30 days of treatment for each dose.

As for `O=C([O-])O.[Na+]` [sodium bicarbonate, reference compound], in the data set with foot odor [1] (1-1.25 g per shoe), the “olfactory evaluation of footwear and feet” value is on record as “no obvious change in degree of unpleasant odor”.

As to cupric chloride, the contact dermatitis result in the data set with foot odor [2] (use in footwear) is recorded as “varying degrees of contact dermatitis”.

In the case of cupric carbonate, CuCO3.Cu(OH)2, the “olfactory evaluation of footwear and feet” value in the data set on foot odor [1] (1-1.25 g per shoe) is reported as “no detectable hint of unpleasantness”. Besides, the duration of effectiveness entry in the data set with foot odor [1] (1-1.25 g per shoe, in many cases twelve months or more) is recorded as “at least six”. This compound also returned an effectiveness in the data set on foot odor [1] (for at least six months) of around 100%. Also, the antimicrobial properties entry in data set [3] is listed as “confirming the existence of antimicrobial properties”. Further, the “efficacy against foot odor in earlier testing” value with foot odor [4] (4.0 gram dosing, positive control, right shoe) was “shown the efficacy”. The organoleptic odor evaluation result is on record as “no detectable trace of odor beyond that of damp footwear” in the data set with foot odor [4] (dosed at or above 1.5 grams per shoe) and “some malodorous relief, but for a more limited period of time” in the data set on foot odor [4] (dosed at or below 1.0 gram per shoe). The contact dermatitis result in the data set with foot odor [2] (in vivo) is given as “contact dermatitis was completely eliminated”.

With `CC(=O)[O-].CC(=O)[O-].[Cu+2]` [acetate solution, cupric acetate], the antimicrobial properties result in data set [3] was “confirming the existence of antimicrobial properties”.
